From ChEMBL document CHEMBL1201862, “PubChem BioAssay data set” (2004)
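1) Cells in 96-well plates. 2) Compound, 48 h, 5 concentrations. 3) Linear interpolation between surrounding doses. 4) Unreached endpoint = highest concentration. At the GI50, growth is halved.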 Activity calls are given as the source filed them. Cut-off read from the data, not from the text of the source: active = GI50 up to about 1.1 µM and inactive = higher.

What was measured:
Assay in all cases: inhibition of tumour cell growth, NCI panel, 48 h
[1] = system: 786-0
[2] = system: ACHN
[3] = system: HCT-116
[4] = system: HCT-15
[5] = system: HL-60
[6] = system: HOP-92
[7] = system: KM12
[8] = system: M14
[9] = system: Malme-3M
[10] = system: OVCAR-5
[11] = system: SF-268
[12] = system: SF-295
[13] = system: SF-539
[14] = system: SK-MEL-5
[15] = system: SNB-75
[16] = system: SR
[17] = system: U-251

SMILES | GI50 [1] | GI50 [2] | GI50 [3] | GI50 [4] [µM] | GI50 [5] | GI50 [6] | GI50 [7] | GI50 [8] | GI50 [9] | GI50 [10] | GI50 [11] | GI50 [12] | GI50 [13] | GI50 [14] | GI50 [15] | GI50 [16] | GI50 [17]
N#C/C(=C\c1ccc[nH]1)C(=O)c1ccccc1 | > 100 µM (inactive) | > 100 µM (inactive) | > 100 µM (inactive) | > 100 | > 100 µM (inactive) | 70.8 µM (inactive) | > 100 µM (inactive) | > 100 µM (inactive) | > 100 µM (inactive) | > 100 µM (inactive) | > 100 µM (inactive) | > 100 µM (inactive) | > 100 µM (inactive) | > 100 µM (inactive) | 35.8 µM (inactive) | > 100 µM (inactive) | > 100 µM (inactive)
O=C(Nc1ccc(Cl)cc1)C1C(=O)C(=O)N(c2ccc(Cl)cc2)C1=O (configuration not stated) | > 100 µM (inactive) | 89.9 µM (inactive) | 53.7 µM (inactive) | 35.9 | > 100 µM (inactive) | 29.1 µM (inactive) | > 100 µM (inactive) | > 100 µM (inactive) | > 100 µM (inactive) | > 100 µM (inactive) | > 100 µM (inactive) | 93.8 µM (inactive) | > 100 µM (inactive) | > 100 µM (inactive) | > 100 µM (inactive) | > 100 µM (inactive) | 58.6 µM (inactive)
C1=CC2SSSC2C1 (configuration not stated) | > 100 µM (inactive) | > 100 µM (inactive) | > 100 µM (inactive) | > 100 | > 100 µM (inactive) | > 100 µM (inactive) | > 100 µM (inactive) | > 100 µM (inactive) | > 100 µM (inactive) | > 100 µM (inactive) | > 100 µM (inactive) | > 100 µM (inactive) | > 100 µM (inactive) | > 100 µM (inactive) | > 100 µM (inactive) | > 100 µM (inactive) | > 100 µM (inactive)
C/C(CN1C(=O)c2ccccc2C1=O)=N\NS(=O)(=O)c1ccccc1 | > 100 µM (inactive) | > 100 µM (inactive) | > 100 µM (inactive) | > 100 | > 100 µM (inactive) | > 100 µM (inactive) | > 100 µM (inactive) | > 100 µM (inactive) | > 100 µM (inactive) | > 100 µM (inactive) | > 100 µM (inactive) | > 100 µM (inactive) | > 100 µM (inactive) | > 100 µM (inactive) | > 100 µM (inactive) |  | > 100 µM (inactive)
Nc1ccc(CCN2CCN(c3cccc(C(F)(F)F)c3)CC2)cc1 | 84.3 µM (inactive) | > 100 µM (inactive) | > 100 µM (inactive) | > 100 | 9.51 µM (inactive) | 54.8 µM (inactive) | > 100 µM (inactive) | 82.6 µM (inactive) | > 100 µM (inactive) | > 100 µM (inactive) | > 100 µM (inactive) | 97.5 µM (inactive) | > 100 µM (inactive) | 55.2 µM (inactive) | > 100 µM (inactive) | 58.5 µM (inactive) | 91.2 µM (inactive)
COc1ccc(CCN(C)C2CCC(C#N)(c3ccc(OC)c(OC)c3)CC2)cc1OC (configuration not stated) | > 100 µM (inactive) | > 100 µM (inactive) | 85.3 µM (inactive) | > 100 | 71 µM (inactive) | 38.9 µM (inactive) | > 100 µM (inactive) | > 100 µM (inactive) | > 100 µM (inactive) | > 100 µM (inactive) | > 100 µM (inactive) | > 100 µM (inactive) | > 100 µM (inactive) | 56.9 µM (inactive) | > 100 µM (inactive) | > 100 µM (inactive) | > 100 µM (inactive)
C/C=C1\CCC2c3[nH]c4ccccc4c3CCN2C1 (configuration not stated) | 70.1 µM (inactive) | > 100 µM (inactive) | 56 µM (inactive) |  | 43.3 µM (inactive) | 26.3 µM (inactive) | > 100 µM (inactive) | 21.5 µM (inactive) | 0.174 µM (active) |  | > 100 µM (inactive) | > 100 µM (inactive) | > 100 µM (inactive) | 51.2 µM (inactive) | 61.7 µM (inactive) | 55.5 µM (inactive) | > 100 µM (inactive)
COc1cc2cc3c4c(cc(OC)c(OC)c4c2cc1OC)CCN3C(=O)CCCC(=O)O | > 100 µM (inactive) | > 100 µM (inactive) | > 100 µM (inactive) |  | > 100 µM (inactive) | > 100 µM (inactive) | > 100 µM (inactive) | > 100 µM (inactive) | > 100 µM (inactive) | > 100 µM (inactive) | > 100 µM (inactive) | > 100 µM (inactive) | > 100 µM (inactive) | > 100 µM (inactive) |  | > 100 µM (inactive) | > 100 µM (inactive)
O=C(O)C1CC2CC(=O)C1C2 (configuration not stated) | > 100 µM (inactive) | > 100 µM (inactive) | > 100 µM (inactive) |  | > 100 µM (inactive) | > 100 µM (inactive) | > 100 µM (inactive) | > 100 µM (inactive) | > 100 µM (inactive) | > 100 µM (inactive) | > 100 µM (inactive) | > 100 µM (inactive) | > 100 µM (inactive) | > 100 µM (inactive) | > 100 µM (inactive) | > 100 µM (inactive) | > 100 µM (inactive)
COc1ccc2c(c1)[n+]([O-])c(C(=O)C/C(=N/OCCCc1ccccc1)C(=O)NC13CC4CC(CC(C4)C1)C3)c(C)[n+]2[O-] | > 100 µM (inactive) | > 100 µM (inactive) | > 100 µM (inactive) | > 100 | > 100 µM (inactive) |  | > 100 µM (inactive) | > 100 µM (inactive) | > 100 µM (inactive) | > 100 µM (inactive) | > 100 µM (inactive) | > 100 µM (inactive) | > 100 µM (inactive) | > 100 µM (inactive) | > 100 µM (inactive) | > 100 µM (inactive) | > 100 µM (inactive)
CCCCC(C(=O)C(=O)Nc1ccc(C)cc1C)C(=O)C(C)C (configuration not stated) | > 100 µM (inactive) | > 100 µM (inactive) | > 100 µM (inactive) | > 100 | > 100 µM (inactive) | > 100 µM (inactive) | > 100 µM (inactive) | > 100 µM (inactive) | > 100 µM (inactive) | > 100 µM (inactive) | > 100 µM (inactive) | > 100 µM (inactive) | > 100 µM (inactive) | > 100 µM (inactive) | > 100 µM (inactive) |  | > 100 µM (inactive)
CC(=O)NC(CCCNC(=O)N(CCCl)N=O)C(=O)NCc1ccccc1 (configuration not stated) | 6.87 µM (inactive) | 38.9 µM (inactive) | > 100 µM (inactive) | > 100 | 24 µM (inactive) | > 100 µM (inactive) | > 100 µM (inactive) | > 100 µM (inactive) | > 100 µM (inactive) |  | 6.53 µM (inactive) | 27.9 µM (inactive) | 11.7 µM (inactive) |  | 9.71 µM (inactive) | 35.6 µM (inactive) | 27.6 µM (inactive)
N=C(N)/N=C(/C=C/c1ccccc1)CC1OC(=O)c2ccccc21 (configuration not stated) | > 100 µM (inactive) | > 100 µM (inactive) | > 100 µM (inactive) | > 100 | > 100 µM (inactive) |  | > 100 µM (inactive) | > 100 µM (inactive) | > 100 µM (inactive) |  | 61.1 µM (inactive) | > 10 µM (inactive) | > 100 µM (inactive) | > 100 µM (inactive) | > 100 µM (inactive) | > 100 µM (inactive) | > 100 µM (inactive)
CCOC(=O)/C(=C/c1ccccc1)N(CC)CC | > 100 µM (inactive) | > 100 µM (inactive) | > 100 µM (inactive) | > 100 | > 100 µM (inactive) | > 100 µM (inactive) | > 100 µM (inactive) | > 100 µM (inactive) | > 100 µM (inactive) | > 100 µM (inactive) | > 100 µM (inactive) | > 100 µM (inactive) | > 100 µM (inactive) | > 100 µM (inactive) |  | > 100 µM (inactive) | > 100 µM (inactive)
S=C(N/N=C/c1ccccc1)NC1CC(c2ccccc2)Oc2ccccc21 (configuration not stated) | 67 µM (inactive) | > 10 µM (inactive) | 72.1 µM (inactive) |  |  | 2.17 µM (inactive) | > 100 µM (inactive) | 15.3 µM (inactive) | 68.1 µM (inactive) | > 100 µM (inactive) | 51.4 µM (inactive) | 16.1 µM (inactive) | 38.3 µM (inactive) | 11.1 µM (inactive) | 7.16 µM (inactive) | > 100 µM (inactive) | 33.4 µM (inactive)
COc1cc(CC2c3cc(OC)c(OC)cc3CCN2C)c(C(=O)O)cc1OC (configuration not stated) | > 100 µM (inactive) | > 100 µM (inactive) | > 100 µM (inactive) |  | > 100 µM (inactive) | > 100 µM (inactive) | > 100 µM (inactive) | > 100 µM (inactive) | > 100 µM (inactive) | > 100 µM (inactive) | > 100 µM (inactive) | > 100 µM (inactive) | > 100 µM (inactive) | > 100 µM (inactive) | > 100 µM (inactive) | > 100 µM (inactive) | > 100 µM (inactive)
COc1ccc(OC)c(/C=C/C(=O)C(C)(C)C)c1 | 19.5 µM (inactive) | 19.9 µM (inactive) | 17.9 µM (inactive) | 20.1 | 14.7 µM (inactive) | 18.7 µM (inactive) | 21.1 µM (inactive) | 15.7 µM (inactive) | 17.9 µM (inactive) | > 10 µM (inactive) | > 10 µM (inactive) | 25 µM (inactive) | 19.8 µM (inactive) | 15 µM (inactive) | 26 µM (inactive) |  | 20 µM (inactive)
